Experimental data as given in publication PMC5618418, “Pharmacokinetics of Jaspine B and Enhancement of Intestinal Absorption of Jaspine B in the Presence of Bile Acid in Rats” (Marine Drugs, 2017).

Columns and labels:
[1] = Metabolic stability in rat liver microsomes; format: in vitro ADME; conditions: for percentage remaining: 37 °C
Description: Jaspine B (1 μM) was reconstituted in 100 mM potassium phosphate buffer (pH 7.4) containing 0.25 mg of RLMs and was pre-incubated for 5 min at 37 °C. The reaction was initiated by adding an NADPH-generating system (1.3 mM β-NADP, 3.3 mM glucose-6-phosphate, 3.3 mM MgCl2, and 1.0 unit/mL glucose-6-phosphate dehydrogenase) and then incubated (final volume 100 μL) for 0, 15, 30, and 60 min at 37 °C in a shaking water bath. The reaction was stopped by placing the incubation tubes on ice and adding 200 μL of ice-cold acetonitrile containing 0.5 ng/mL of berberine. After vortexing for 10 min and centrifugation at 13,200 rpm for 5 min, 2 μL of the supernatant was injected directly into the LC-MS/MS system.

in vitro = in vitro ADME, rat
Description: For the measurement of the effect of TC on the tight junction of biological membranes, the permeability of 50 μM Lucifer yellow, a marker of paracellular permeation, was measured in the presence of TC (0, 0.1, 1, 10, 100 mM). Prior to the experiment, ileal segments from SD rats (about 20 cm) were placed in the chambers and were submerged in fresh, prewarmed (37 °C) HBSS for 15 min for acclimatization. The chambers were continuously bubbled with carbogen gas (5% CO2/ 95% O2) during the experiment. The experiments began by replacing the HBSS with HBSS containing 50 μM Lucifer yellow and various concentrations of TC on the apical side (A) and adding fresh HBSS to the basal side (B). Aliquots (400 μL) of media were withdrawn from the receiver compartment (B) after 0, 20, 40, 60, and 80 min, and the volume of liquid in the receiver compartment was replenished with fresh, prewarmed HBSS after each sampling. Aliquots (200 μL) of all samples were used for the determination of Lucifer yellow concentration. The fluorescence of Lucifer yellow in the samples was measured using a fluorescence spectrophotometer (Infinite 200 PRO, Tecan, Switzerland) with excitation at 425 nm and emission at 535 nm.
A to B and B to A permeability of Jaspine B was measured in the presence of TC and rat bile. One mL of HBSS containing 50 μM Jaspine B and 10 mM TC or 20% bile was added to the donor side and 1 mL of preheated fresh HBSS was added to the receiver side. Aliquots (400 μL) of media were withdrawn at 0, 20, 40, 60, and 80 min from the receiver compartment as described above. Aliquots (50 μL) of all samples were stored at −80 °C until analysis.
Aliquots (50 μL) of all samples were added to 250 μL of acetonitrile containing 0.5 ng/mL of berberine. After vortexing for 10 min and centrifugation at 13,200 rpm for 5 min, 2 μL of the supernatant was injected directly into the LC-MS/MS system.
The apparent permeability (Papp) of the drug was calculated by dividing the initial drug transport rate (dQ/dt, pmol/min) by the initial drug concentration in the donor compartment of the insert (Co) multiplied by the surface area of the insert (A, cm^2): (3) Papp=dQ/dt×1/ACo

MDA-MB-435 = tested on: MDA-MB-435; design: method as in doi:10.5352/JLS.2016.26.12.1392; conditions: MDA-MB-435 melanoma; cited from earlier work
MDA-MB-231 = tested on: MDA-MB-231; design: method as in doi:10.5352/JLS.2016.26.12.1392; conditions: MDA-MB-231 human breast adenocarcinoma; cited from earlier work
SK-OV3 = tested on: SK-OV3; design: method as in doi:10.5352/JLS.2016.26.12.1392; conditions: SK-OV3 ovarian; cited from earlier work

Question: What does the source list for CCCCCCCCCCCCCC[C@@H]1OC[C@H](N)[C@@H]1O [Jaspine B]?
Answer: percentage remaining ([1]; 1 μM, rat liver microsomes, NADPH-generating system, 30 min): 59.8%; percentage remaining ([1]; 1 μM, rat liver microsomes, NADPH-generating system, 60 min): 20.4%; degraded ([1]; 1 h incubation with rat liver microsomes): 80%; half-life at 1 μM ([1]; pH 7.4, 1 μM, rat liver microsomes, NADPH-generating system, read-out: degradation half-life (T1/2)): 24 min; permeability change (in vitro): increased the permeability; Papp at 80 min, 50 μM (in vitro; Sprague-Dawley, rat): 0.11 ×10⁻⁶ cm/s; increase of secretory (B to A) permeability (in vitro; Sprague-Dawley, rat, 80 min, 50 μM): approximately 5 fold; IC50 (MDA-MB-435): 2.6 µM; IC50 (MDA-MB-231): > 100 µM; IC50 (SK-OV3): 4.78 µM
